# Data published in patent US6803233B2, “Model for Alzheimer's disease and other neurodegenerative diseases” (priority 2000, dated 2004).
# Entries after “also recorded” stand apart in the source; their conditions may differ. Square brackets hold non-standard residues; d marks the D form. Peptide text beside a SMILES is read from it. Nle = CCCC[C@H](N)C(=O)O
# Tests used:
# TGF-beta = assay: RT-PCR/northern blot of cytokine mRNA in cultured hippocampal slices; type: cell-based
# reactive microglia = assay: ED-1 immunocytochemistry of cultured brain explants; type: cell-based, rat; conditions: 6 days
# Procedure: Immunocytochemical studies using the monoclonal antibody ED-1 that recognizes reactive microglia were used at 1:1000 dilution following standard immunohistochemical procedures. Microglial activation was determined by measuring cell numbers, optical density, and size of cell bodies using the program NIH Image. Brain tissue was cultured for 12 days and treated with ZPAD (20 μM) in the presence or absence of PD98059 (50 μM) for 6 days (FIG. 18). Cultured explants were then sliced and stained by using monoclonal antibody ED-1 which recognizes reactive microglia, a classical marker of inflammation. […] Cultured brain explants were then sliced and stained by using monoclonal antibody ED-1, a classical marker for reactive microglia and macrophages.
# APP = assay: Immunoblot of APP in hippocampal slices, mevastatin plus kinase inhibitors (Example 8); type: cell-based
# tangle-like structures = assay: AT8 immunostaining of cultured rat hippocampal slices; type: cell-based; conditions: for number of ZPAD-induced tangles in the presence of the inhibitor: hippocampal slices, ZPAD plus inhibitor, 6 days
# Procedure: Cultured slices were stained with anti-phosphorylated tau antibody AT8.
# (§1) Cultures of hippocampal slices were prepared from 10-12 days old rats.
# Cultured rat hippocampal slices of 12 days in vitro were treated with 20 μM pravastatin for 6 days and processed from immunohistological studies with the monoclonal antibody AT8. The subiculum, CA1 field, and CA3 field of the hippocampus were examined by photomicroscopy.
# MAPK (ERK1/2) = assay: Immunoblot with anti-active MAPK in cultured hippocampal slices; type: cell-based; conditions: 6 days
# p35 [1] = assay: Immunoblot of p35/p25 in cultured rat hippocampal slices; type: cell-based; conditions: 6 days
# Procedure: Hippocampal slices were collected, homogenized, and subjected to SDS-PAGE electrophoresis. Immunoblots were then probed with anti-p35 sera that were raised against the C-terminal domain of p35.
# as §1
# tau = assay: Immunoblot of tau (tau-1, AT8) in cultured rat hippocampal slices; type: cell-based
# Procedure: Immunoblotting was carried out by using anti-non phosphorylated tau antibody, tau-1 or anti-phosphorylated tau antibody, AT8.
# as §1
# tau protein = conditions: literature report; cited from earlier work
# cathepsin D = conditions: literature report; cited from earlier work
# [2] = tested on: amyloid precursor protein (APP); assay: Immunoblot of APP (antibody 22C11) in hippocampal slices from apoE-knockout mice; type: cell-based, mouse
# Description: Tissues were processed for immunoblotting and assessed by monoclonal antibody 22C11, which recognizes the N-terminal domain of amyloid precursor protein (APP). […] Whether this new product is due to proteolysis or changes in protein maturation is under investigation.
# p35 [3] = assay: Immunoblot of p35 in hippocampal slices from apoE-knockout mice; type: cell-based; conditions: apoE-knockout mouse slices; mevastatin plus agent
# IL-10 = assay: RT-PCR/northern blot of cytokine mRNA in cultured hippocampal slices; type: cell-based; conditions: ZPAD 20 μM, mevastatin 20 μM
# microglia = assay: CD11b immunostaining of hippocampus of rats injected daily with statins; type: in vivo, rat; conditions: male Sprague-Dawley rats, 10 mg/kg i.p. daily for 39 days
# Procedure: Brains were then removed, postfixed in perfusate for 5-6 hors, and cryoprotected in 15% sucrose/PB followed by 30% sucrose/PB (12-24 hours each) at 4° C. Coronal sections were cut at 20-30 μm by using a freezing microtome and collected into PBS. Immunostaining was performed as described for the in vitro experiments using monoclonal antibody CD11b that reacts with both active and non-active microglia.
# TNF-alpha = assay: RT-PCR/northern blot of cytokine mRNA in cultured hippocampal slices; type: cell-based; conditions: mevastatin 20 μM
# Description: FIG. 17. Messenger RNA levels of TNF-alpha are increased by interruption of cholesterol synthesis.
# Levels of mRNA for the cytokines were quantified by RT-PCR and northern blot analysis, following protocols outlined in the RT-PCR kit (Ambion Inc.).
structure (smiles),measurement,setting,value
"COc1cccc(-c2cc(=O)c3ccccc3o2)c1N [PD98059, 2-2(Amino-3-methoxyphenyl)-4H-1-benzopyran-4-one]",mRNA levels for certain cytokines (FIG. 16),TGF-beta; PD98059 treatment,decreased
same,ZPAD-induced reaction of microglia with co-application of the inhibitor,reactive microglia; ZPAD 20 μM plus PD98059 50 μM,completely blocked
same,reaction of microglia (ED-1 staining),"reactive microglia; ZPAD 20 μM, mevastatin 20 μM or PD98059 50 μM alone",did not induce evident change in microglia
same,effects of mevastatin on APP in the presence of the inhibitor,APP,partially blocked
same,number of ZPAD-induced tangles in the presence of the inhibitor,tangle-like structures,significantly reduced
same,MAPK activation by mevastatin and ZPAD in the presence of the inhibitor,MAPK (ERK1/2),blocked
"CCCC[C@@H](C=O)NC(=O)[C@H](CC(C)C)NC(=O)[C@H](CC(C)C)NC(C)=O [calpain inhibitor I, N-acetyl-leucyl-leucyl-norleucinal] (Ac-Leu-Leu-[Nle]-aldehyde)",number of ZPAD-induced tangles in the presence of the inhibitor,tangle-like structures,significantly reduced
same,ZPAD-induced conversion of p35 to p25 in the presence of the inhibitor,p35 [1]; ZPAD plus inhibitor,significantly inhibited
same,ZPAD-induced tau fragments (tau 15-35 / tau 29 and tau 40) in the presence of the inhibitor,"tau; ZPAD plus inhibitor, 6 days, 2 separate experiments",almost completely blocked
CCN(CC)CCCC(C)Nc1ccnc2cc(Cl)ccc12 (stereo not drawn) [chloroquine],29 kDa tau fragment (tau 29),tau protein,delayed appearance of a 29 kDa fragment
same,enzymatically active cathepsin D,cathepsin D,increases in enzymatically active cathepsin D
CC(O)(CCO)CC(=O)O (stereo not drawn) [mevalonate],effects of mevastatin on APP in the presence of the agent,[2]; mevastatin plus agent,completely blocked
same,mevastatin-induced down regulation of p35 in the presence of the agent,p35 [3],completely blocked
CC[C@H](C)C(=O)O[C@H]1CCC=C2C=C[C@H](C)[C@H](CC[C@@H]3C[C@@H](O)CC(=O)O3)[C@H]21 [mevastatin],mRNA levels of IL-10,IL-10,increased
same,mRNA levels of TGF-beta,"TGF-beta; ZPAD 20 μM, mevastatin 20 μM",increased
same,levels of full length APP,[2]; mevastatin treatment,increased levels
same,novel APP band with molecular weight slightly lower than native APP,[2]; mevastatin treatment,induced a novel band
same,levels of full length APP,"[2]; mevastatin treatment, listed as Mevastatin",markedly increased
same,microglial reactions,microglia,induced; also recorded: Induction of microglial reactions
same,induction of AT8-immunoreactive tangle-like structures,"tangle-like structures; rat hippocampal slices, agent applied for 6 days",moderately increased; also recorded: resulted in tangle-like structures
same,mRNA level of TNF-alpha,TNF-alpha,markedly increase
same,activated MAPK (ERK1/2),MAPK (ERK1/2); hippocampal slices,activated; also recorded: increased; also recorded: activation
same,levels of p35,p35 [1]; hippocampal slices,significant decreases; also recorded: rapidly and markedly decreased; also recorded: reduced
same,phosphorylated 33 kDa tau breakdown products (AT8 blot),tau; rat hippocampal slices,markedly enhanced
